Reference: EPA's ToxValDB 9.5 (doi:10.2903/j.efsa.2014.3540)

Legend:
Colinus virginianus = conditions: for LD50: acute, oral, mortality
Tagia sp. = conditions: acute; duration: 14 days; mortality
Rattus norvegicus = conditions: for NOAEL: chronic
Apis mellifera = conditions: acute, duration: 48 hours, mortality
Oryctolagus sp. = conditions: developmental; development
Daphnia magna = conditions: chronic/long-term; duration: 21 days; reproduction
Landoltia sp. = conditions: acute; duration: 7 days; growth
Oncorhynchus mykiss = conditions: chronic/long-term; duration: 96 days; mortality

**Q.** With `Cc1c(C(=O)c2c[nH]n(C)c2=O)ccc(S(C)(=O)=O)c1C1=NOCC1` [Topramezone] as the compound, how does the LD50 (Colinus virginianus; diet) read?
**A.** > 1080 mg/kg-day

**Q.** What about the LD50 (Colinus virginianus) of the same compound?
**A.** > 2000 mg/kg-day

**Q.** What about the NOEL (Colinus virginianus; reproduction developmental, reproduction) of the same compound?
**A.** 19.4 mg/kg-day

**Q.** What about the LC50 (Tagia sp.) of the same compound?
**A.** > 1000 mg/kg

**Q.** And the LD50 (Rattus norvegicus; acute, oral, mortality)?
**A.** > 2000 mg/kg-day

**Q.** And the NOAEL (Rattus norvegicus; F)?
**A.** 0.4 mg/kg-day

**Q.** What about the NOAEL (Rattus norvegicus; M) of the same compound?
**A.** 0.3 mg/kg-day

**Q.** And the NOAEL (Rattus norvegicus; duration: 2 years, F, histopathology: neoplastic)?
**A.** 0.4 mg/kg-day

**Q.** What about the LD50 (Apis mellifera; dermal) of the same compound?
**A.** > 100 µg/piece

**Q.** And the LD50 (Apis mellifera; oral, unspecified)?
**A.** > 72 µg/piece

**Q.** And the NOAEL (Oryctolagus sp.)?
**A.** 0.5 mg/kg-day

**Q.** What about the NOEC (Daphnia magna) of the same compound?
**A.** 50 mg/L

**Q.** What about the NOEC (Landoltia sp.) of the same compound?
**A.** 0.001 mg/L

**Q.** What about the NOAEC (Oncorhynchus mykiss) of the same compound?
**A.** 3.2 mg/L
